Laboratory results reported in patent US4863904A, “Dipeptides as renin inhibitors” (priority 1984, dated 1989).

Tests used:
common marmosets = experiment: Depressive effect in marmosets (blood pressure of conscious marmosets in a high renin state); type: in vivo; conditions: 100 mg/kg orally, conscious furosemide-treated common marmoset
Procedure: The experiment was carried out by using common marmosets as described in K. G. Hofbauer et al., Clinical and Experimental Hypertension-Theory and Practice, Vol A5, Nos 7 & 8 (1983), pages 1237-1247.
Furosemide was orally administered three times to common marmosets at 15 mg per kilogram per day every other day to create a high renin state. The operation was performed according to the method used by K. G. Hofbauer et al., and blood pressure of conscious marmosets was measured 2 days after the last administration of furosemide.
Male common marmosets weighing 350 g and 280 g were lightly anesthetized by Ketamine hydrochloride (Ketalar®, 10 to 20 mg/kg i.m.), and their femoral artery and vein was exposed. Catheters being filled with a heparin solution was subcutaneously inserted into the femoral vein and the femoral artery from the tail. After suturing of the opened part, the marmosets were placed on a heated mat. After complete recovery from the anesthesia, a dipeptide of the present invention (100 mg/kg) was orally administered through a soft catheter.
The arterial catheter was connected to a pressure transducer and blood pressure was recorded on the polygraph.

human renin = molecular target: T1, human renin (Homo sapiens, UniProt P00797); experiment: Human renin-sheep renin substrate reaction system in vitro; type: biochemical; conditions: purified human renin, semipurified sheep renin substrate, pH 7.4, 37° C., 15 minutes; angiotensin I by radioimmunoassay; read-out: IC50 (molar concentration)
T1 sequence (P00797 67-406): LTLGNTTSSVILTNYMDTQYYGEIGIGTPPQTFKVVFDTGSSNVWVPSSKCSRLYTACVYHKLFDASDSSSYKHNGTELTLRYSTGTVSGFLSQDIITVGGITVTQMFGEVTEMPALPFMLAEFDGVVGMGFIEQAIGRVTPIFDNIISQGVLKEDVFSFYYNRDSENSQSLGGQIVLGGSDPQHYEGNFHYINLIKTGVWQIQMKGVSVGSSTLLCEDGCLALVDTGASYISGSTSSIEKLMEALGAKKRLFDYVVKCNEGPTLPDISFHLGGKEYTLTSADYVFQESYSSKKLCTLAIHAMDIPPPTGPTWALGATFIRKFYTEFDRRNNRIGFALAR
Procedure: The mixture was incubated for 15 minutes on a water bath at 37° C., and the reaction mixture was allowed to stand for 5 minutes on a water bath at 100° C. to stop the reaction. After cooling, 200 μl of the solution was taken up and the amount of angiotensin I produced by the addition of renin was determined by radioimmunoassay. The inhibitory effect was calculated by the following equation. [formula]
As a control, the same procedure as above was carried out by using 50 μl of dimethyl sulfoxide alone in place of the 50 μl of dimethyl sulfoxide solution containing a dipeptide of the present invention.

Q: Which “Blood pressure (mm Hg)” value (common marmosets; 60 min. after administration) does the source give for `CC(C)C[C@@H](C=O)NC(=O)[C@H](Cc1c[nH]cn1)NC(=O)C(CC(=O)NCCc1ccccc1)Cc1cccc2ccccc12` (stereo partly drawn) [N-[2-(1-Naphthylmethyl)-3-(phenethylcarbamoyl)propionyl]-L-histidyl-L-leucinal] here?
A: The value was 98.2 mm Hg.

Q: What about the “Blood pressure (mm Hg)” value (common marmosets; 120 min. after administration) of the same compound?
A: Its value is 88.0 mm Hg.

Q: And the “Blood pressure (mm Hg)” value (common marmosets; 180 min. after administration)?
A: Its value is 87.6 mm Hg.

Q: What about the “Blood pressure (mm Hg)” value (common marmosets; 300 min. after administration) of the same compound?
A: The value was 96.5 mm Hg.

Q: What about the “Blood pressure (mm Hg)” value (common marmosets; 420 min. after administration) of the same compound?
A: The value was 101.2 mm Hg.

Q: With `CC(C)C[C@@H](CO)NC(=O)[C@H](Cc1c[nH]cn1)NC(=O)C(CC(=O)NCCc1ccccc1)Cc1cccc2ccccc12` (stereo partly drawn) [N-[2-(1-Naphthylmethyl)-3-(phenethylcarbamoyl)propionyl]-L-histidyl-L-leucinol] as the compound, how does the “Blood pressure (mm Hg)” value (common marmosets; 60 min. after administration) read?
A: Its value is 97.7 mm Hg.

Q: What about the “Blood pressure (mm Hg)” value (common marmosets; 120 min. after administration) of the same compound?
A: Its value is 89.5 mm Hg.

Q: What about the “Blood pressure (mm Hg)” value (common marmosets; 180 min. after administration) of the same compound?
A: Its value is 95.3 mm Hg.

Q: What about the “Blood pressure (mm Hg)” value (common marmosets; 300 min. after administration) of the same compound?
A: Its value is 97.4 mm Hg.

Q: And the “Blood pressure (mm Hg)” value (common marmosets; 420 min. after administration)?
A: The value was 99.0 mm Hg.

Q: For `CC(C)C[C@@H](CO)NC(=O)[C@H](Cc1c[nH]cn1)NC(=O)C(CC(=O)Nc1ccccc1)Cc1cccc2ccccc12` (single isomer, unassigned) [N-[2-(1-Naphthylmethyl)-3-(phenylcarbamoyl)propionyl]-L-histidyl-L-leucinol(isomer B)], which IC50 (human renin) is on record?
A: Its IC50 is 18 µM.

Q: For `CC(C)C[C@@H](CO)NC(=O)[C@H](Cc1c[nH]cn1)NC(=O)C(CC(=O)Nc1ccccc1)Cc1cccc2ccccc12` (single isomer, unassigned) [N-[2-(1-Naphthylmethyl)-3-(phenylcarbamoyl)propionyl]-L-histidyl-L-leucinol(isomer A)], which IC50 (human renin) is on record?
A: Its IC50 is 65 µM.

Q: Which IC50 (human renin) does the source give for `CC(C)C[C@@H](C=O)NC(=O)[C@H](Cc1c[nH]cn1)NC(=O)C(=Cc1ccccc1)CC(=O)NCc1cccc2ccccc12` [N-[2-Benzylidene-3-(1-naphthylmethylcarbamoyl)propionyl]-L-histidyl-L-leucinal] here?
A: The IC50 was 3.8 µM.

Q: Which IC50 (human renin) does the source give for `CC(C)C[C@@H](C=O)NC(=O)[C@H](Cc1c[nH]cn1)NC(=O)C(Cc1ccccc1)C(=O)NCc1cccc2ccccc12` (mixture of isomers) [N-[(±)-2-(1-Naphthylmethylcarbamoyl)-3-phenylpropionyl]-L-histidyl-L-leucinal] here?
A: Its IC50 is 8.2 µM.

Q: `CC(C)C[C@@H](C=O)NC(=O)[C@H](Cc1c[nH]cn1)NC(=O)C(CCCCc1ccc2ccccc2c1)Cc1ccccc1` (stereo partly drawn) [N-[2-Benzyl-6-(2-naphthyl)hexanoyl]-L-histidyl-L-leucinal] was tested. Which IC50 (human renin) did it give?
A: The IC50 was 3.4 µM.
